ChEMBL document CHEMBL1201862, “PubChem BioAssay data set” (2004)
Active and inactive are the calls of the source.

Columns and labels:
[1] = target: DNA dC->dU-editing enzyme APOBEC-3G (Homo sapiens, UniProt Q9HC16); assay type: functional;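 also: Dose-response counterscreen measuring inhibition of APOBEC3G DNA deaminase activity, run while confirming APOBEC3A inhibitors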
[2] = target: DNA dC->dU-editing enzyme APOBEC-3A (Homo sapiens, UniProt P31941); assay: Dose Response confirmation of small molecule APOBEC3A DNA Deaminase Inhibitors via a fluorescence-based single-stranded DNA deaminase assay. [Related pubchem assays (depositor defined):AID493011, AID493024]; assay type: functional
Chain of DNA dC->dU-editing enzyme APOBEC-3A (P31941 whole entry): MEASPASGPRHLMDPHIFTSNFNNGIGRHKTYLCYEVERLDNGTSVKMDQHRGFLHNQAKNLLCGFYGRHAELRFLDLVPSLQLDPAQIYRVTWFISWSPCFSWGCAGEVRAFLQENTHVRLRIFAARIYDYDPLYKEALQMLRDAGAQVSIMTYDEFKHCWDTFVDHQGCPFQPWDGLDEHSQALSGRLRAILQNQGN

ORF 73 = target: T1, ORF 73 (Human herpesvirus 8, UniProt O40947); assay: KSHV LANA DNA-binding disruption – biochemical, fluorescence polarization, cherry-picked samples, dose response (AID 504725); parameters: species or system Human gammaherpesvirus 8;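 also: fluorescence polarization of a labeled DNA duplex reporting LANA DNA binding; potency is for inhibitors that block LANA binding to the DNA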
T1 sequence (O40947 whole entry): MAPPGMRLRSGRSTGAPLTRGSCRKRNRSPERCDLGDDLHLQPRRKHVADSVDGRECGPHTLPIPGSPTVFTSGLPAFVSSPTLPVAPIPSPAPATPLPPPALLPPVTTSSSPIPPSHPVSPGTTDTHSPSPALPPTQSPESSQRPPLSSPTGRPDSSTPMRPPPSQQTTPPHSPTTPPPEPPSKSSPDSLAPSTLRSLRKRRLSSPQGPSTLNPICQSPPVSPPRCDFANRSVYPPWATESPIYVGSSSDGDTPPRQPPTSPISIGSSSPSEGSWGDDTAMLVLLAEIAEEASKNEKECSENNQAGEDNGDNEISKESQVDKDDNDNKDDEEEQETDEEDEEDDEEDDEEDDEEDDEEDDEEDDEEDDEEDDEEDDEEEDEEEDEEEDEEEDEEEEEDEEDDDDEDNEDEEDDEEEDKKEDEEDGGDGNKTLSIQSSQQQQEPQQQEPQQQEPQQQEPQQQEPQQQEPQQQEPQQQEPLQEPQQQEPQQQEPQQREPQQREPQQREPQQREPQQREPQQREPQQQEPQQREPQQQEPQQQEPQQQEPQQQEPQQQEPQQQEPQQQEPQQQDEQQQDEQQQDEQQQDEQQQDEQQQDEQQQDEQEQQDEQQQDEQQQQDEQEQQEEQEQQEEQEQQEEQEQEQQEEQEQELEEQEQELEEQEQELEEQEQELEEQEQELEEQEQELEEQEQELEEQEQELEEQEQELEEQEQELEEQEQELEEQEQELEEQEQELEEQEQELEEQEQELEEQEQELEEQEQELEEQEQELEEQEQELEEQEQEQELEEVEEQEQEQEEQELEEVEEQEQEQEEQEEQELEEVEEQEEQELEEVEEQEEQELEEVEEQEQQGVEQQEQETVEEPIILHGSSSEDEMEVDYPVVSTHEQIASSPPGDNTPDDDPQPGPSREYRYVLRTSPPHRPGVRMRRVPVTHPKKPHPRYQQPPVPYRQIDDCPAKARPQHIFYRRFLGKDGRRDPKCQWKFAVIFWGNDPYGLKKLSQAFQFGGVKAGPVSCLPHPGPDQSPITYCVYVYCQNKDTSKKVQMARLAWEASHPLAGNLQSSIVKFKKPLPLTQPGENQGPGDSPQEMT

[3] = target: UDP-galactopyranose mutase (Mycobacterium tuberculosis, UniProt P9WIQ1); assay: Inhibitors of Mycobacterium tuberculosis UDP-galactopyranose mutase (UGM) enzyme Measured in Biochemical System Using Plate Reader - 2105-02_Inhibitor_Dose_CherryPick_Activity. [Related pubchem assays (depositor defined):AID504439]
Chain of UDP-galactopyranose mutase (P9WIQ1 whole entry): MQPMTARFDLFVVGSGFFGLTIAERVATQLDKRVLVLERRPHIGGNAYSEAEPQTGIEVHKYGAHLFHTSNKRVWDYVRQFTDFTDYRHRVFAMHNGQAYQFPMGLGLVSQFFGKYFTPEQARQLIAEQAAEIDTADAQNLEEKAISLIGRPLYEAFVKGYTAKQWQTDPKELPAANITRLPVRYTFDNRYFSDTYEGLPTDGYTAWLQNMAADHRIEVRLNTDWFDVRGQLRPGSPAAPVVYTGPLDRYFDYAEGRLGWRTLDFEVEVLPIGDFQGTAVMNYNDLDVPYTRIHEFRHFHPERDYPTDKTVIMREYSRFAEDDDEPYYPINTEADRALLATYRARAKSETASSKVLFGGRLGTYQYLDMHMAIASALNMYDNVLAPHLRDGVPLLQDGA

Keap1/Nrf2 = Keap1/Nrf2 (Homo sapiens, UniProt Q14145); assay: disruptors of Keap1 binding to Nrf2 peptide – biochemical, fluorescence polarization, cherry-picked samples, dose response (AID 588683)
Chain of Keap1/Nrf2 (Q16236 whole entry): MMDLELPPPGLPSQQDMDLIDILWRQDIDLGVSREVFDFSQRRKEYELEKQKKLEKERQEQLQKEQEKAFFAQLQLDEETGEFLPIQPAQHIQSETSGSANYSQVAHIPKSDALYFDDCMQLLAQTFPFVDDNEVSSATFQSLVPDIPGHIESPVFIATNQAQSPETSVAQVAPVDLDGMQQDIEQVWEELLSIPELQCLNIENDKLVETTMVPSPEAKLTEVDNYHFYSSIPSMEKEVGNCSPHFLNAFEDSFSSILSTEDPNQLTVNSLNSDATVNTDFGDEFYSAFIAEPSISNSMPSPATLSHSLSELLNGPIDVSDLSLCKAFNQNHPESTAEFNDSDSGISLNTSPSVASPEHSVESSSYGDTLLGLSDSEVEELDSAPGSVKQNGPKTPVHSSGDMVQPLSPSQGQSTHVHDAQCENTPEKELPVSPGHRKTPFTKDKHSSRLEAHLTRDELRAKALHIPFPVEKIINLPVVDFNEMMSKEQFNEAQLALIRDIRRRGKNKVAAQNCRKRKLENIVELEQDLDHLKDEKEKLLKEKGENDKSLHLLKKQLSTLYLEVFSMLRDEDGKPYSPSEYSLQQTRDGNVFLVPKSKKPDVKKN
Chain of Keap1/Nrf2 (Q14145 whole entry): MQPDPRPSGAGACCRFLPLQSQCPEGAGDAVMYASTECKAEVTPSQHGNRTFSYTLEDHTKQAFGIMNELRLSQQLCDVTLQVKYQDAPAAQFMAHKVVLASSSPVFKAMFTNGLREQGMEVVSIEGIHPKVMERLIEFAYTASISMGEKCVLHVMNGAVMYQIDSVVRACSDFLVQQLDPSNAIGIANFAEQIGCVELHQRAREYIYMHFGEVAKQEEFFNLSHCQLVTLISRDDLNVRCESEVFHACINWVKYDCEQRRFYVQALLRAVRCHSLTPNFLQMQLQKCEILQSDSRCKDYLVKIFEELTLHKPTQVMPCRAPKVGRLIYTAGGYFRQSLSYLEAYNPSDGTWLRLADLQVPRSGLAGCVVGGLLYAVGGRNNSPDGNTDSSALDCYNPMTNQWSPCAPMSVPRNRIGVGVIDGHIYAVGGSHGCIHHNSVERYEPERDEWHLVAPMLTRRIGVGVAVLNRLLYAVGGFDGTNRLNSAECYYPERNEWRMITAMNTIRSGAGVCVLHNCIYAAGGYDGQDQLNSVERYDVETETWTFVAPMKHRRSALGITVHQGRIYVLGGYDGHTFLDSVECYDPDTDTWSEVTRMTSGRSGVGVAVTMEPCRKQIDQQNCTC

Cytochrome P450 3A4 = Cytochrome P450 3A4 (Homo sapiens, UniProt P08684);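 also: CYP3A4 tested as one member of a cytochrome P450 panel screen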
Chain of Cytochrome P450 3A4 (P08684 whole entry): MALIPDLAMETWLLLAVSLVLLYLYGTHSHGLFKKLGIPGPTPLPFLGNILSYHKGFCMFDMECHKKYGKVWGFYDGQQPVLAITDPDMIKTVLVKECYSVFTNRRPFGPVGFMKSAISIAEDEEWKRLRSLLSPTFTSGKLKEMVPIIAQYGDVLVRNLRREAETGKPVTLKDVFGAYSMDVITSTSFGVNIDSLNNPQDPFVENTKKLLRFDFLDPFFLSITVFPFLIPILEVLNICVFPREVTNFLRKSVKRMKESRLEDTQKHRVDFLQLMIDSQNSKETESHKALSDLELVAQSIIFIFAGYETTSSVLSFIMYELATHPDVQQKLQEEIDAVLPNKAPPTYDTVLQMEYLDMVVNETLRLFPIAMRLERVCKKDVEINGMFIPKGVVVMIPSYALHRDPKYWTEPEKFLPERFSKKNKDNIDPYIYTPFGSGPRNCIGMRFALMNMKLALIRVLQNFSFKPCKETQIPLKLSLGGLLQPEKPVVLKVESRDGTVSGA

Cytochrome P450 2D6 = Cytochrome P450 2D6 (Homo sapiens, UniProt P10635);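 also: CYP2D6 member of a cytochrome P450 panel assay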
Chain of Cytochrome P450 2D6 (P10635 whole entry): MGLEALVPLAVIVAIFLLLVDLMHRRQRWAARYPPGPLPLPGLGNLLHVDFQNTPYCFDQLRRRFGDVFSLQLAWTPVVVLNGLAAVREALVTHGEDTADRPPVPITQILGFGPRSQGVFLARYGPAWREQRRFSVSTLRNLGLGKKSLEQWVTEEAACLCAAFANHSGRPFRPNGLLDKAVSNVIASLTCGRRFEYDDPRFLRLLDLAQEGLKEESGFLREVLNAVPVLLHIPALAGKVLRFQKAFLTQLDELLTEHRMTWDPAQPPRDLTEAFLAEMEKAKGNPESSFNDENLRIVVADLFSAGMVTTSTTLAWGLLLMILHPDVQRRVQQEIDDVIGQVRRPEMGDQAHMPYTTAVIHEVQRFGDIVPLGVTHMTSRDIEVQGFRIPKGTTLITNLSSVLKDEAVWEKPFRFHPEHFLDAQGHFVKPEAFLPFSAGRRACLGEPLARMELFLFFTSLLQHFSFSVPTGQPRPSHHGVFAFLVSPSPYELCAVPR

[4] = target: T2, Mannose-6-phosphate isomerase (Homo sapiens, UniProt P34949); assay: phosphomannose isomerase inhibition – biochemical, fluorescence intensity, confirmation (AID 1535)
T2 sequence (P34949 whole entry): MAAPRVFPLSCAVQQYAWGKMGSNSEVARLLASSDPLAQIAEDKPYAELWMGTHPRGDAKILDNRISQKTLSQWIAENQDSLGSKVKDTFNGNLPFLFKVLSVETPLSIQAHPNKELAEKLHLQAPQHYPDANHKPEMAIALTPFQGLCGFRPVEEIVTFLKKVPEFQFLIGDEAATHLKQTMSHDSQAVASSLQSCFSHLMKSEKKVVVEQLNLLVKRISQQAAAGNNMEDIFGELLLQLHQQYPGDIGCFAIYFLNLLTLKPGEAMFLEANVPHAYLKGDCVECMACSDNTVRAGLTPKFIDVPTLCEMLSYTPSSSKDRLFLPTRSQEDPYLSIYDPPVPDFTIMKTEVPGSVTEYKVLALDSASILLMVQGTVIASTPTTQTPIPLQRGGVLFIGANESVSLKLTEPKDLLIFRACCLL

[5] = target: Phosphoethanolamine/phosphocholine phosphatase (Homo sapiens, UniProt Q8TCT1); assay: SAR assay for compounds that inhibit PHOSPHO1. [Related pubchem assays (depositor defined):AID1545, AID1565, AID1574]
Chain of Phosphoethanolamine/phosphocholine phosphatase (Q8TCT1 whole entry): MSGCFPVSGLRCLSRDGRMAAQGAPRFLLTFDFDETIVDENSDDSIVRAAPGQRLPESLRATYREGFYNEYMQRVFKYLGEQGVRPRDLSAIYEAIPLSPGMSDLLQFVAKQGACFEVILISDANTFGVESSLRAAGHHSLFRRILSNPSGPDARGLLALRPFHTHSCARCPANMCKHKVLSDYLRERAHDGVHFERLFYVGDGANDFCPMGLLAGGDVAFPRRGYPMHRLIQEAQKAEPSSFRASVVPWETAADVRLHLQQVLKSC

Phosphomannomutase 2 = target: T3, Phosphomannomutase 2 (Homo sapiens, UniProt O15305); assay: Counter screen SAR assay for PMM2 inhibitors via a fluorescence intensity assay. [Related pubchem assays (depositor defined):AID1545, AID1574]
T3 sequence (O15305 whole entry): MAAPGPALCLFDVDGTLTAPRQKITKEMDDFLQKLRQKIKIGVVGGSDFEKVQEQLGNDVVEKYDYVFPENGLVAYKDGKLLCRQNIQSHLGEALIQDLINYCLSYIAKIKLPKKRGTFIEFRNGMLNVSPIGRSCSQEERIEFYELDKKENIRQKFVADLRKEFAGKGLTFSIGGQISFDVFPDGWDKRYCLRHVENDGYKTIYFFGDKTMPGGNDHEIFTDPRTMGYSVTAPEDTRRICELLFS

[6] = target: Kappa-type opioid receptor (Homo sapiens, UniProt P41145); assay: SAR analysis of small molecule agonists of the kappa opioid receptor via a luminescent beta-arrestin assay - Set 3. [Related pubchem assays (depositor defined):AID1777, AID1785, AID1786, AID1966, AID2133, AID2136, AID2284, AID2500]; assay type: functional
Chain of Kappa-type opioid receptor (P41145 whole entry): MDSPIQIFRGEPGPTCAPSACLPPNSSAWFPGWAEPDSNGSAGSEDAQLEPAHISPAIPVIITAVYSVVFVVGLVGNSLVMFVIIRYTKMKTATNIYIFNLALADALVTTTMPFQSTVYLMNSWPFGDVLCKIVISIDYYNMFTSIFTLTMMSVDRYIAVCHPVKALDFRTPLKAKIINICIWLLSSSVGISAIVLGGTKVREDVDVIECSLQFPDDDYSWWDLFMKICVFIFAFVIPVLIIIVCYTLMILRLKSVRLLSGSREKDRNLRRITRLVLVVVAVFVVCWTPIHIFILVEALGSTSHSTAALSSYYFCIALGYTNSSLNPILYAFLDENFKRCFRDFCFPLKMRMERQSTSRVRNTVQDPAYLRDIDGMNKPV

Chain of DNA dC->dU-editing enzyme APOBEC-3G (Q9HC16 whole entry): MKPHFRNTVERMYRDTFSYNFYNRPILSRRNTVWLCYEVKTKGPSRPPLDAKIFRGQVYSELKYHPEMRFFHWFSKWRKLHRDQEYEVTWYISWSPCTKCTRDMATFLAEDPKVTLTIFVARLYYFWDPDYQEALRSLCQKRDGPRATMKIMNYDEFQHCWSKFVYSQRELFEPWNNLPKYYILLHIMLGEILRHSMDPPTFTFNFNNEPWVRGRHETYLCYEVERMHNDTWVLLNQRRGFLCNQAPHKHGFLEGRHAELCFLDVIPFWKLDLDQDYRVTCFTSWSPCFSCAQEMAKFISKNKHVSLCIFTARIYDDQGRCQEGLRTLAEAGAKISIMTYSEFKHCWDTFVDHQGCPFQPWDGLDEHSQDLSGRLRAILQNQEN

COC(=O)C[n+]1cccc2ccccc21
IC50 [1]: 4.46 µM (active) | IC50 [2]: 2.81 µM (active) | AC50 (ORF 73): 6.51 µM (active) | AC50 [3]: 35.7 µM (active) | AC50 (Keap1/Nrf2): 20.8 µM (active)

Cc1ccc(CC(=O)N2CC(C)OC(C)C2)cc1 (stereo unspecified)
AC50 (Cytochrome P450 3A4): inconclusive | AC50 (Cytochrome P450 2D6): inconclusive

CCN(CC)S(=O)(=O)c1ccc(-n2sc3ccccc3c2=O)cc1
IC50 [4]: > 50 µM (inactive) | IC50 [5]: 6.21 µM (inactive) | IC50 (Phosphomannomutase 2): > 100 µM (inactive)

Brc1ccc(-c2nnc(SCc3ccccc3)n2Cc2ccco2)cc1
EC50 [6]: > 20 µM (inactive)
